Measurements: the NIST ThermoML archive (doi:10.1021/acs.jced.8b00755)
Where “and” joins values, the source holds several entries; their conditions need not be identical. Equal values may be shown once.

Legend:
[1] = xn = mol fraction of the nth substance listed; conditions: 298.15 K, 101.3 kPa, Liquid, Vibrating tube method
[2] = refractive index (Na D-line) (dimensionless); xn = mol fraction of the nth substance listed; conditions: 298.15 K, 101.3 kPa, Liquid, Standard Abbe refractometry
[3] = relative permittivity at zero frequency (dimensionless); xn = mol fraction of the nth substance listed; conditions: 298.15 K, 101.3 kPa, Liquid, Coaxial cylinder capacitor
[4] = 298.15 K; 101.3 kPa; Liquid; Vibrating tube method
[5] = refractive index (Na D-line) (dimensionless); conditions: 298.15 K; 101.3 kPa; Liquid; Standard Abbe refractometry
[6] = relative permittivity at zero frequency (dimensionless); conditions: 298.15 K; 101.3 kPa; Liquid; Coaxial cylinder capacitor

O=C1CCCCC1 [cyclohexanone] + CCCCCCCCCCO
Conditions	mass density, [1] [kg/m3]	refractive index, [2]	relative permittivity at zero frequency, [3]
x2 = 0	942.47	1.4485	15.81
x2 = 0.1	922.31	1.4458	14.59
x2 = 0.2	904.8	1.4436	13.46
x2 = 0.3	889.41	1.4416	12.41
x2 = 0.4	875.85	1.4399	11.44
x2 = 0.5	863.79	1.4385	10.57
x2 = 0.6	853.13	1.4374	9.81
x2 = 0.7	843.78	1.4364	9.15
x2 = 0.8	836.26	1.4358	8.59
x2 = 0.9	830.72	1.4354	8.12

CCCCCCO [hexan-1-ol] + O=C1CCCCC1
x1 = 1
Conditions	mass density [kg/m3]	refractive index	relative permittivity at zero frequency
[1]	815.99	–	–
[2]	–	1.4161	–
[3]	–	–	13.06

CCCCCCO [hexan-1-ol]
Conditions	mass density [kg/m3]	refractive index	relative permittivity at zero frequency
[4]	815.99	–	–
[5]	–	1.4161	–
[6]	–	–	13.06

O=C1CCCCC1 [cyclohexanone] + CCCCCCCCO
Conditions	mass density, [1] [kg/m3]	refractive index, [2]	relative permittivity at zero frequency, [3]
x2 = 0	942.47	1.4485	15.81
x2 = 0.1	924.71	1.4456	14.72
x2 = 0.2	908.6	1.443	13.74
x2 = 0.3	893.85	1.4403	12.87
x2 = 0.4	880.35	1.438	12.12
x2 = 0.5	867.97	1.4358	11.47
x2 = 0.6	856.69	1.4338	10.93
x2 = 0.7	846.41	1.4319	10.5
x2 = 0.8	837.29	1.4303	10.18
x2 = 0.9	829.11	1.4289	9.97

C1CCCCC1 [cyclohexane]
Conditions	refractive index	relative permittivity at zero frequency
[5]	1.4235	–
[6]	–	2.021 and 2.02

O=C1CCCCC1 [cyclohexanone] + C1CCCCC1
Conditions	refractive index, [2]	relative permittivity at zero frequency, [3]
x1 = 0.02	1.4239	2.189
x1 = 0.04	1.4243	2.364
x1 = 0.05	1.4245	2.467
x1 = 0.06	1.4247	2.563
x1 = 0.08	1.4251	2.746
x1 = 0.1	1.4255 and 1.4254	2.932 and 3
x1 = 0.2	1.4276	4.12
x1 = 0.3	1.4298	5.35
x1 = 0.4	1.4322	6.66
x1 = 0.5	1.4347	8.03
x1 = 0.6	1.4372	9.45
x1 = 0.7	1.4399	10.94
x1 = 0.8	1.4427	12.49
x1 = 0.9	1.4456	14.11
x1 = 1	1.4485	15.81

C1CCCCC1 [cyclohexane] + O=C1CCCCC1
x2 = 0
Conditions	refractive index	relative permittivity at zero frequency
[2]	1.4235	–
[3]	–	2.021 and 2.02

O=C1CCCCC1 [cyclohexanone] + CCCCCCO
Conditions	mass density, [1] [kg/m3]	refractive index, [2]	relative permittivity at zero frequency, [3]
x2 = 0	942.47	1.4485	15.81
x2 = 0.1	927.39	1.4444	14.93
x2 = 0.2	912.83	1.4405	14.2
x2 = 0.3	898.77	1.4367	13.59
x2 = 0.4	885.19	1.4332	13.13
x2 = 0.5	872.11	1.4299	12.79
x2 = 0.6	859.53	1.4267	12.58
x2 = 0.7	847.55	1.4237	12.5
x2 = 0.8	836.36	1.4209	12.57
x2 = 0.9	825.91	1.4184	12.76

O=C1CCCCC1 [cyclohexanone] + CCO
Conditions	mass density, [1] [kg/m3]	refractive index, [2]	relative permittivity at zero frequency, [3]
x2 = 0	942.47	1.4485	15.81
x2 = 0.1	938.01	1.4449	15.84
x2 = 0.2	930.92	1.4401	15.98
x2 = 0.3	921.48	1.4339	16.36
x2 = 0.4	910.02	1.4268	16.97
x2 = 0.5	896.25	1.4187	17.76
x2 = 0.6	879.92	1.4094	18.72
x2 = 0.7	860.95	1.3988	19.88
x2 = 0.8	839.21	1.3869	21.19
x2 = 0.9	814.29	1.3739	22.68

O=C1CCCCC1 [cyclohexanone]
Conditions	mass density [kg/m3]	refractive index	relative permittivity at zero frequency
[4]	942.47	–	–
[5]	–	1.4485	–
[6]	–	–	15.81
